Measurements as given in patent US11420970B1 (NOVARTIS AG, priority 2019, dated 2022).
Read-outs that look alike come from different tables or passages of the source.

Tests used:
NSD2 [1-1365] = NSD2 [1-1365] (Homo sapiens (Human), UniProt O96028); assay: LC-MS/MS-based NSD2 enzymatic assay (SAH production); assay type: biochemical; conditions: read-out: NSD2 IC50
Method in brief: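 SAH formed was measured by LC-MS/MS using d4-SAH as internal standard and an SAH calibration curve. Compounds were preincubated 20 min with NSD2 [1-1365] and SAM; mouse-liver nucleosome then started a 90 min room-temperature reaction (8 nM enzyme, 1 μM SAM, 400 nM nucleosome final, pH 8.0), stopped with TFA.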

[1] = tested on: cellular H3K36me2 level in multiple myeloma cell line KMS11 (t(4;14)+); assay: H3K36me2 cellular ELISA assay in KMS11-Par line; assay type: cell-based; conditions: Homo sapiens, KMS-11; KMS11-Par line (t(4;14)+), 72 hours treatment, ELISA; read-out: H3K36me2 ELISA in KMS11-Par
Procedure: H3K36Me2 Cellular ELISA Assay in KMS11-Par Line
An ELISA (enzyme-linked immunosorbent assay) based assay was used to test the ability of candidate compound to reduce cellular H3K36me2 level in multiple myeloma cell line KMS11 (t(4;14)+). KMS11 (Horizon Discovery Ltd.) cells are maintained in RPM11640 media with 12.5% FBS and 50 U/ml Penicillin-Streptomycin. For assay compound treatment, single cell suspension was prepared in Opti-MEM supplemented with B-27 and N2 supplement (Invitrogen 11058-021, 17504-044, 17502-048) for ELISA and in maintenance media for cellTiter Glo (CTG) viability assay. One day prior to cell treatment, 1,250 KMS11 cells were seeded into 384-well Greiner CellStar TC plate (Greiner #781086) at the final volume of 30 μL/well.
Cells were treated with tested compounds at the desired concentration for 72 hours. Crude histone lysate was extracted by 0.4M HCl following neutralization by 0.5M Sodium phosphate, dibasic (Na2HPO4), pH ˜12.5. Equal amount of histone lysate was loaded to Corning 384-well high biding plate (Corning #3577, black) for H3K36m2 and to Thermo 384-well high binding Nunc plate (Thermo #460372, white) for total H3.
Histone bound plates were washed and blocked with 5% BSA. […] The abundance of H3K36me2 and total H3 was measured by Chemiluminesce on a plate reader. Cell viability was monitored on a parallel seeded plate with CellTiter-Glo reagent (Promega #G7573).

[2] = NSD2 biochemical activity, class symbols

Chain of NSD2 [1-1365] (O96028 whole entry): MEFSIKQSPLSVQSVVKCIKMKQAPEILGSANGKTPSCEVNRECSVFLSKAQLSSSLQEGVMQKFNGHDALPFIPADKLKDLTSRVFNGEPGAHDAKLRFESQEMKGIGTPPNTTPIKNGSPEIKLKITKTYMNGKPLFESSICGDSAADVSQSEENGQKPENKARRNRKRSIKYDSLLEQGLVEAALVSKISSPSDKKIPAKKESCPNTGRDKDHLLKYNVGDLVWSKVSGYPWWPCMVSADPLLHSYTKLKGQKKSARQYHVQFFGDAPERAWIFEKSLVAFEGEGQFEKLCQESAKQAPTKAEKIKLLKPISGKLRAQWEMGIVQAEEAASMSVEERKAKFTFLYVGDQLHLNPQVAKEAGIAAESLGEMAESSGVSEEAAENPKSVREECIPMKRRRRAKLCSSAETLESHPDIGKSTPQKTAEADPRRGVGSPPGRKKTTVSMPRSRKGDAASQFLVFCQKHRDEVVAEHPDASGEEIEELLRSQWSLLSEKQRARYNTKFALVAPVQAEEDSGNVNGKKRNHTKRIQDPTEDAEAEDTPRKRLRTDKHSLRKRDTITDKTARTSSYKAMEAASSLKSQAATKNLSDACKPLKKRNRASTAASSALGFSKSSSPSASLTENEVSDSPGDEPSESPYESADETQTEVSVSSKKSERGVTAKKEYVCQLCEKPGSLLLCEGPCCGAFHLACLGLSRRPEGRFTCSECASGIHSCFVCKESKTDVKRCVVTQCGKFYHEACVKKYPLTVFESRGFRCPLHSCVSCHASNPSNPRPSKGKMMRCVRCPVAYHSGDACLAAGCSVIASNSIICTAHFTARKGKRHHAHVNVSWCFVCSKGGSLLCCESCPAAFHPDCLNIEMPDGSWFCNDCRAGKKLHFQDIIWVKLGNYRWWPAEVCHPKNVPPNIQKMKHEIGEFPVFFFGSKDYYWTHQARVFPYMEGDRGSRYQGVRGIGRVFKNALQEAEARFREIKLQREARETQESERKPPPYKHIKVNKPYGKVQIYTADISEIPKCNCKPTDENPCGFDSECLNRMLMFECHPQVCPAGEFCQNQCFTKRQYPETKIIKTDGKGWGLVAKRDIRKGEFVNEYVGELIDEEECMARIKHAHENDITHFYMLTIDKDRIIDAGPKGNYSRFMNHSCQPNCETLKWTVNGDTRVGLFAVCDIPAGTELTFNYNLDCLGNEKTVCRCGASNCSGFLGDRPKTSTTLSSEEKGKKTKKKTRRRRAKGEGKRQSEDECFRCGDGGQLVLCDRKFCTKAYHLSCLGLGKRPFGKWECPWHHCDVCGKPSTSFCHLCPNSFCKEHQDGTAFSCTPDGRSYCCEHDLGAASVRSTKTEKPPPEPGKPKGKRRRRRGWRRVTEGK

For `Nc1nccc2c1ncn2Cc1cc(-c2ccc(F)c(F)c2)ncc1N1CCC[C@](N)(Cc2nccs2)C1` [Example 48, (S)-1-((5-(3-amino-3-(thiazol-2-ylmethyl)piperidin-1-yl)-2-(3,4-difluorophenyl)pyridin-4-yl)methyl)-1H-imidazo[4,5-c]pyridin-4-amine], the IC50 (NSD2 [1-1365]; [2]) was 1 to 10 nM and the IC50 [1] was 464 nM.

`Cn1ccc(C[C@@]2(N)CCCN(c3cnc(-c4ccc(F)cc4)cc3Cn3cnc4c(N)nccc43)C2)n1` [Example 49, (S)-1-((5-(3-amino-3-((1-methyl-1H-pyrazol-3-yl)methyl)piperidin-1-yl)-2-(4-fluorophenyl)pyridin-4-yl)methyl)-1H-imidazo[4,5-c]pyridin-4-amine] gave an IC50 (NSD2 [1-1365]; [2]) of 1 to 10 nM and an IC50 [1] of 12700 nM.

In the case of `COc1ccc(-c2cc(Cn3cnc4c(N)nccc43)c(N3CCC[C@](N)(Cc4ccccn4)C3)cn2)cc1F` [Example 50, (S)-1-((5-(3-amino-3-(pyridin-2-ylmethyl)piperidin-1-yl)-2-(3-fluoro-4-methoxyphenyl)pyridin-4-yl)methyl)-1H-imidazo[4,5-c]pyridin-4-amine], the IC50 (NSD2 [1-1365]; [2]) is reported as 1 to 10 nM and the IC50 [1] is reported as 895 nM.

Work on `Nc1nccc2c1ncn2Cc1cc(-c2ccc(F)c(F)c2)ncc1N1CCC[C@](N)(Cc2ccccn2)C1` [Example 51, (S)-1-((5-(3-amino-3-(pyridin-2-ylmethyl)piperidin-1-yl)-2-(3,4-difluorophenyl)pyridin-4-yl)methyl)-1H-imidazo[4,5-c]pyridin-4-amine] yielded an IC50 (NSD2 [1-1365]; [2]) of 1 to 10 nM and an IC50 [1] of 1530 nM.

`Cc1cccc(C[C@@]2(N)CCCN(c3cnc(-c4ccc(F)c(F)c4)cc3Cn3cnc4c(N)ncnc43)C2)n1` [Example 55, (S)-9-((5-(3-amino-3-((6-methylpyridin-2-yl)methyl)piperidin-1-yl)-2-(3,4-difluorophenyl)pyridin-4-yl)methyl)-9H-purin-6-amine] gave an IC50 (NSD2 [1-1365]; [2]) of 1 to 10 nM and an IC50 [1] of 910 nM.

`COc1ccc(-c2cc(Cn3cnc4c(N)nccc43)c(N3CCC[C@](N)(Cc4nccs4)C3)cn2)cc1F` [Example 57, (S)-1-((5-(3-amino-3-(thiazol-2-ylmethyl)piperidin-1-yl)-2-(3-fluoro-4-methoxyphenyl)pyridin-4-yl)methyl)-1H-imidazo[4,5-c]pyridin-4-amine] gave an IC50 (NSD2 [1-1365]; [2]) of 1 to 10 nM and an IC50 [1] of 610 nM.

`Nc1nccc2c1ncn2Cc1cc(-c2ccc(F)c(F)c2)ncc1N1CCC[C@](N)(Cc2ncco2)C1` [Example 63, (S)-1-((5-(3-amino-3-(oxazol-2-ylmethyl)piperidin-1-yl)-2-(3,4-difluorophenyl)pyridin-4-yl)methyl)-1H-imidazo[4,5-c]pyridin-4-amine] gave an IC50 (NSD2 [1-1365]; [2]) of 10 to 1000 nM and an IC50 [1] of 7910 nM.

Work on `Nc1ncnc2c1ncn2Cc1cc(-c2ccc(NC(=O)CCBr)cc2)ncc1N1CCCC(N)(CC(F)F)C1` (stereo not drawn) [Example 64, N-(4-(5-(3-amino-3-(2,2-difluoroethyl)piperidin-1-yl)-4-((6-amino-9H-purin-9-yl)methyl)pyridin-2-yl)phenyl)-3-bromopropanamide] yielded an IC50 (NSD2 [1-1365]; [2]) of 10 to 1000 nM and an IC50 [1] of 7000 nM.

`C[C@@H](c1ccccn1)[C@@]1(N)CCCN(c2cnc(-c3ccc(F)c(F)c3)cc2Cn2cnc3c(N)ncnc32)C1` [Example 65, 9-((5-((S)-3-amino-3-((R)-1-(pyridin-2-yl)ethyl)piperidin-1-yl)-2-(3,4-difluorophenyl)pyridin-4-yl)methyl)-9H-purin-6-amine] was tested, and the IC50 (NSD2 [1-1365]; [2]) was 10 to 1000 nM and the IC50 [1] was 1130 nM.

For `Nc1ncnc2c1ncn2Cc1cc(-c2ccc(F)c(F)c2)ncc1N1CCCC(N)(Cc2cccc(F)n2)C1` (stereo not drawn) [Example 69, 9-((5-(3-amino-3-((6-fluoropyridin-2-yl)methyl)piperidin-1-yl)-2-(3,4-difluorophenyl)pyridin-4-yl)methyl)-9H-purin-6-amine], the IC50 (NSD2 [1-1365]; [2]) was 10 to 1000 nM and the IC50 [1] was 1150 nM.

Molecule `Nc1ncnc2c1ncn2Cc1cc(-c2ccc(F)c(F)c2)ncc1N1C[C@H](N)C[C@H](F)C1` [Example 309, 9-((5-((3R,5S)-3-amino-5-fluoropiperidin-1-yl)-2-(3,4-difluorophenyl)pyridin-4-yl)methyl)-9H-purin-6-amine] has an IC50 (NSD2 [1-1365]) of 10 to 1000 nM.

`C[C@H]1CC[C@@H](N)CN1c1cnc(-c2ccc(F)c(F)c2)cc1Cn1cnc2c(N)ncnc21` [Example 310, 9-((5-((2S,5R)-5-amino-2-methylpiperidin-1-yl)-2-(3,4-difluorophenyl)pyridin-4-yl)methyl)-9H-purin-6-amine] was tested, and the IC50 (NSD2 [1-1365]) was > 1000 nM.

`Nc1ncnc2c1ncn2Cc1cc(-c2ccc(F)c(F)c2)ncc1N1CCC[C@@H](N)[C@H]1COC(F)F` [Example 311, 9-((5-((2S,3R)-3-amino-2-((difluoromethoxy)methyl)piperidin-1-yl)-2-(3,4-difluorophenyl)pyridin-4-yl)methyl)-9H-purin-6-amine] gave an IC50 (NSD2 [1-1365]) of 10 to 1000 nM.

`Nc1ncnc2c1ncn2Cc1cc(-c2ccc(F)c(F)c2)ncc1N1CCC[C@@H](N)[C@H]1CO` [Example 312, ((2S,3R)-3-amino-1-(4-((6-amino-9H-purin-9-yl)methyl)-6-(3,4-difluorophenyl)pyridin-3-yl)piperidin-2-yl)methanol] was tested, and the IC50 (NSD2 [1-1365]) was 10 to 1000 nM.

`Nc1ncnc2c1ncn2Cc1cc(-c2ccc(F)c(F)c2)ncc1N1CCC[C@@H](N)[C@H]1COCC(F)F` [Example 313, 9-((5-((2S,3R)-3-amino-2-((2,2-difluoroethoxy)methyl)piperidin-1-yl)-2-(3,4-difluorophenyl)pyridin-4-yl)methyl)-9H-purin-6-amine] showed an IC50 (NSD2 [1-1365]) of 10 to 1000 nM.

Molecule `Nc1ncnc2c1ncn2Cc1cc(-c2ccc(F)c(F)c2)ncc1N1CCC[C@@H](N)[C@H]1CCO` [Example 314, 2-((2R,3R)-3-amino-1-(4-((6-amino-9H-purin-9-yl)methyl)-6-(3,4-difluorophenyl)pyridin-3-yl)piperidin-2-yl)ethan-1-ol] has an IC50 (NSD2 [1-1365]) of 10 to 1000 nM.

For `CNC(=O)[C@@H]1[C@H](N)CCCN1c1cnc(-c2ccc(F)c(F)c2)cc1Cn1cnc2c(N)ncnc21` [Example 315, (2S,3R)-3-amino-1-(4-((6-amino-9H-purin-9-yl)methyl)-6-(3,4-difluorophenyl)pyridin-3-yl)-N-methylpiperidine-2-carboxamide], the IC50 (NSD2 [1-1365]) was > 1000 nM.

`Nc1ncnc2c1ncn2Cc1cc(-c2ccc(F)c(F)c2)ncc1N1CCC[C@@H](N)[C@H]1[C@@H](O)C(F)(F)F` [Example 316, (R)-1-((2S,3R)-3-amino-1-(4-((6-amino-9H-purin-9-yl)methyl)-6-(3,4-difluorophenyl)pyridin-3-yl)piperidin-2-yl)-2,2,2-trifluoroethan-1-ol] was tested, and the IC50 (NSD2 [1-1365]) was > 1000 nM.

`CN(C)C(=O)[C@@H]1[C@H](N)CCCN1c1cnc(-c2ccc(F)c(F)c2)cc1Cn1cnc2c(N)ncnc21` [Example 317, (2S,3R)-3-amino-1-(4-((6-amino-9H-purin-9-yl)methyl)-6-(3,4-difluorophenyl)pyridin-3-yl)-N,N-dimethylpiperidine-2-carboxamide] was tested, and the IC50 (NSD2 [1-1365]) was > 1000 nM.

For `NC(=O)[C@@H]1[C@H](N)CCCN1c1cnc(-c2ccc(F)c(F)c2)cc1Cn1cnc2c(N)ncnc21` [Example 318, (2S,3R)-3-amino-1-(4-((6-amino-9H-purin-9-yl)methyl)-6-(3,4-difluorophenyl)pyridin-3-yl)piperidine-2-carboxamide], the IC50 (NSD2 [1-1365]) was > 1000 nM.

For `Nc1ncnc2c1ncn2Cc1cc(-c2ccc(F)c(F)c2)ncc1N1CCC[C@@H](N)[C@H]1C(=O)O` [Example 319], the IC50 (NSD2 [1-1365]) was > 1000 nM.

In the case of `NC(=O)C[C@@H]1[C@H](N)CCCN1c1cnc(-c2ccc(F)c(F)c2)cc1Cn1cnc2c(N)ncnc21` [Example 320, 2-((2R,3R)-3-amino-1-(4-((6-amino-9H-purin-9-yl)methyl)-6-(3,4-difluorophenyl)pyridin-3-yl)piperidin-2-yl)acetamide], the IC50 (NSD2 [1-1365]) is reported as > 1000 nM.

`Nc1ncnc2c1ncn2Cc1cc(-c2ccc(F)c(F)c2)ncc1N1CCCC2(COCCN2)C1` (stereo not drawn) [Example 321, 9-((2-(3,4-difluorophenyl)-5-(4-oxa-1,8-diazaspiro[5.5]undecan-8-yl)pyridin-4-yl)methyl)-9H-purin-6-amine] was tested, and the IC50 (NSD2 [1-1365]) was > 1000 nM.

In the case of `Nc1ncnc2c1ncn2Cc1cc(-c2ccc(F)c(F)c2)ncc1N1CCC[C@@H](N)[C@H]1c1ccccc1` [Example 323, 9-((5-((2R,3R)-3-amino-2-phenylpiperidin-1-yl)-2-(3,4-difluorophenyl)pyridin-4-yl)methyl)-9H-purin-6-amine], the IC50 (NSD2 [1-1365]) is reported as > 1000 nM.

With `Nc1ncnc2c1ncn2Cc1cc(-c2ccc(F)c(F)c2)ncc1N1CCCC(N)C1=O` (stereo not drawn) [Example 324, 3-amino-1-(4-((6-amino-9H-purin-9-yl)methyl)-6-(3,4-difluorophenyl)pyridin-3-yl)piperidin-2-one] the IC50 (NSD2 [1-1365]) was > 1000 nM.

`Nc1ncnc2c1ncn2Cc1cc(-c2ccc(F)c(F)c2)ncc1N1C[C@H](N)CCC1=O` [Example 325, (R)-5-amino-1-(4-((6-amino-9H-purin-9-yl)methyl)-6-(3,4-difluorophenyl)pyridin-3-yl)piperidin-2-one] was tested, and the IC50 (NSD2 [1-1365]) was > 1000 nM.
